Patent US20210045385A1, “PYRIDAZINONE-SUBSTITUTED KETOXIMES AS HERBICIDES” (FMC Corporation, priority 2018, published 2021)

How the values were obtained:
Type in all cases: in vivo
kochia (Kochia scoparia) [1] = assay: Test A postemergence, visual plant response rating; settings: for Kochia plant response rating (0 to 100 scale): 500 g ai/ha, postemergence, 0 is no effect, 100 is complete control; for Kochia plant response rating: Postemergence, 125 g ai/ha, 0 to 100 scale (0 no effect, 100 complete control)
Summary of the method: (§1)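 Compared with untreated controls, treated plants received a visual injury score on a 0–100 scale around 10 days after application. The compound, in a non-phytotoxic solvent with surfactant, was given as a preemergence soil spray or postemergence at the one- to two-leaf stage.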

[2] = test system: wheat (Triticum aestivum); assay: Test A postemergence, visual plant response rating; settings: for Wheat plant response rating (0 to 100 scale): 500 g ai/ha, postemergence, 0 is no effect, 100 is complete control; for Wheat plant response rating: Postemergence, 125 g ai/ha, 0 to 100 scale (0 no effect, 100 complete control)
Summary of the method: as §1

[3] = test system: foxtail, giant (giant foxtail, Setaria faberii); assay: Test A postemergence, visual plant response rating; settings: for Foxtail, Giant plant response rating (0 to 100 scale): 500 g ai/ha, postemergence, 0 is no effect, 100 is complete control; for Foxtail, Giant plant response rating: Postemergence, 125 g ai/ha, 0 to 100 scale (0 no effect, 100 complete control)
Summary of the method: as §1

corn (Zea mays) = assay: Test A postemergence, visual plant response rating; settings: for Corn plant response rating (0 to 100 scale): 500 g ai/ha, postemergence, 0 is no effect, 100 is complete control; for Corn plant response rating: Postemergence, 125 g ai/ha, 0 to 100 scale (0 no effect, 100 complete control)
Summary of the method: as §1

[4] = test system: galium (catchweed bedstraw, Galium aparine); assay: Test A postemergence, visual plant response rating; settings: for Galium plant response rating (0 to 100 scale): 500 g ai/ha, postemergence, 0 is no effect, 100 is complete control; for Galium plant response rating: Postemergence, 125 g ai/ha, 0 to 100 scale (0 no effect, 100 complete control)
Summary of the method: as §1

[5] = test system: blackgrass (Alopecurus myosuroides); assay: Test A postemergence, visual plant response rating; settings: for Blackgrass plant response rating (0 to 100 scale): 500 g ai/ha, postemergence, 0 is no effect, 100 is complete control; for Blackgrass plant response rating: Postemergence, 125 g ai/ha, 0 to 100 scale (0 no effect, 100 complete control)
Summary of the method: as §1

[6] = test system: pigweed (Amaranthus retroflexus); assay: Test A postemergence, visual plant response rating; settings: for Pigweed plant response rating (0 to 100 scale): 500 g ai/ha, postemergence, 0 is no effect, 100 is complete control; for Pigweed plant response rating: Postemergence, 125 g ai/ha, 0 to 100 scale (0 no effect, 100 complete control)
Summary of the method: as §1

[7] = test system: Italian ryegrass (Lolium multiflorum); assay: Test A postemergence, visual plant response rating; settings: for Ryegrass, Italian plant response rating (0 to 100 scale): 500 g ai/ha, postemergence, 0 is no effect, 100 is complete control; for Ryegrass, Italian plant response rating: Postemergence, 125 g ai/ha, 0 to 100 scale (0 no effect, 100 complete control)
Summary of the method: as §1

[8] = test system: ragweed (common ragweed, Ambrosia elatior); assay: Test A postemergence, visual plant response rating; settings: for Ragweed plant response rating (0 to 100 scale): 500 g ai/ha, postemergence, 0 is no effect, 100 is complete control; for Ragweed plant response rating: Postemergence, 125 g ai/ha, 0 to 100 scale (0 no effect, 100 complete control)
Summary of the method: as §1

[9] = test system: barnyardgrass (Echinochloa crus-galli); assay: Test A postemergence, visual plant response rating; settings: for Barnyardgrass plant response rating (0 to 100 scale): 500 g ai/ha, postemergence, 0 is no effect, 100 is complete control; for Barnyardgrass plant response rating: Postemergence, 125 g ai/ha, 0 to 100 scale (0 no effect, 100 complete control)
Summary of the method: as §1

[10] = test system: sedge, umbrella (small-flower umbrella sedge, Cyperus difformis); assay: Test B flooded paddy test, visual plant response rating; settings: 250 g ai/ha, Flood, applied to paddy water, 2-leaf stage, evaluated after 13 to 15 days
Summary of the method: (§2)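 At the two-leaf stage, seedlings received compound applied to paddy water flooded 3 cm above soil, a level sustained until assessment. Greenhouse incubation lasted 13 to 15 days before visual comparison with control plants.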

[11] = test system: ducksalad (Heteranhera limosa); assay: as above; settings: 250 g ai/ha, Flood, applied to paddy water, 2-leaf stage, evaluated after 13 to 15 days
Summary of the method: as §2

rice (Oryza sativa) = assay: as above; settings: 250 g ai/ha, Flood, applied to paddy water, 2-leaf stage, evaluated after 13 to 15 days
Summary of the method: as §2

[12] = test system: barnyardgrass (Echinochloa crus-galli); assay: as above; settings: 250 g ai/ha, Flood, applied to paddy water, 2-leaf stage, evaluated after 13 to 15 days
Summary of the method: as §2

kochia (Kochia scoparia) [13] = assay: Test A preemergence, visual plant response rating; settings: for Kochia plant response rating: 125 g ai/ha, preemergence, 0 to 100 scale, 0 no effect, 100 complete control; for Kochia plant response rating (0 to 100 scale): 500 g ai/ha Preemergence, approx. 10 days
Summary of the method: as §1

[14] = test system: foxtail, giant (giant foxtail, Setaria faberii); assay: Test A preemergence, visual plant response rating; settings: for Foxtail, Giant plant response rating: 125 g ai/ha, preemergence, 0 to 100 scale, 0 no effect, 100 complete control; for Foxtail, Giant plant response rating (0 to 100 scale): 500 g ai/ha Preemergence, approx. 10 days
Summary of the method: as §1

[15] = test system: pigweed (Amaranthus retroflexus); assay: Test A preemergence, visual plant response rating; settings: for Pigweed plant response rating: 125 g ai/ha, preemergence, 0 to 100 scale, 0 no effect, 100 complete control; for Pigweed plant response rating (0 to 100 scale): 500 g ai/ha Preemergence, approx. 10 days
Summary of the method: as §1

[16] = test system: Italian ryegrass (Lolium multiflorum); assay: Test A preemergence, visual plant response rating; settings: for Ryegrass, Italian plant response rating: 125 g ai/ha, preemergence, 0 to 100 scale, 0 no effect, 100 complete control; for Ryegrass, Italian plant response rating (0 to 100 scale): 500 g ai/ha Preemergence, approx. 10 days
Summary of the method: as §1

[17] = test system: ragweed (common ragweed, Ambrosia elatior); assay: Test A preemergence, visual plant response rating; settings: for Ragweed plant response rating: 125 g ai/ha, preemergence, 0 to 100 scale, 0 no effect, 100 complete control; for Ragweed plant response rating (0 to 100 scale): 500 g ai/ha Preemergence, approx. 10 days
Summary of the method: as §1

[18] = test system: barnyardgrass (Echinochloa crus-galli); assay: Test A preemergence, visual plant response rating; settings: for Barnyardgrass plant response rating: 125 g ai/ha, preemergence, 0 to 100 scale, 0 no effect, 100 complete control; for Barnyardgrass plant response rating (0 to 100 scale): 500 g ai/ha Preemergence, approx. 10 days
Summary of the method: as §1

Row | SMILES | Kochia plant response rating (0 to 100 scale) (kochia (Kochia scoparia) [1]) | Kochia plant response rating (kochia (Kochia scoparia) [1]) | Wheat plant response rating (0 to 100 scale) [2] | Wheat plant response rating [2] | Foxtail, Giant plant response rating (0 to 100 scale) [3] | Foxtail, Giant plant response rating [3] | Corn plant response rating (0 to 100 scale) (corn (Zea mays)) | Corn plant response rating (corn (Zea mays)) | Galium plant response rating (0 to 100 scale) [4] | Galium plant response rating [4] | Blackgrass plant response rating (0 to 100 scale) [5] | Blackgrass plant response rating [5] | Pigweed plant response rating (0 to 100 scale) [6] | Pigweed plant response rating [6] | Ryegrass, Italian plant response rating (0 to 100 scale) [7] | Ryegrass, Italian plant response rating [7] | Ragweed plant response rating (0 to 100 scale) [8] | Ragweed plant response rating [8] | Barnyardgrass plant response rating (0 to 100 scale) [9] | Barnyardgrass plant response rating [9] | also measured
1 | CO/N=C(\c1cccc(C#N)c1)c1c(O)c(C)nn(C)c1=O [Compound 74] | 30 | 0 | 0 | 0 | 0 | 0 | 0 | 0 | 50 | 10 | 20 | 0 | 30 | 20 | 20 | 10 | 20 | 0 | 0 | 0 | Plant response rating, Sedge, Umbrella (0 to 100 scale, 0 is no effect, 100 is complete control) [10]: 10; Plant response rating, Ducksalad (0 to 100 scale, 0 is no effect, 100 is complete control) [11]: 25; Plant response rating, Rice (0 to 100 scale, 0 is no effect, 100 is complete control) (rice (Oryza sativa)): 15; Plant response rating, Barnyardgrass (0 to 100 scale, 0 is no effect, 100 is complete control) [12]: 0; Kochia plant response rating (kochia (Kochia scoparia) [13]): 0; Kochia plant response rating (0 to 100 scale) (kochia (Kochia scoparia) [13]): 0; Foxtail, Giant plant response rating [14]: 0; Foxtail, Giant plant response rating (0 to 100 scale) [14]: 0; Pigweed plant response rating [15]: 0; Pigweed plant response rating (0 to 100 scale) [15]: 0; Ryegrass, Italian plant response rating [16]: 0; Ryegrass, Italian plant response rating (0 to 100 scale) [16]: 0; Ragweed plant response rating [17]: 0; Ragweed plant response rating (0 to 100 scale) [17]: 0; Barnyardgrass plant response rating [18]: 0; Barnyardgrass plant response rating (0 to 100 scale) [18]: 0
2 | CON=C(c1c(O)c(C)nn(C)c1=O)c1ccc(F)c2ccccc12 [Compound 51] | 90 | 80 | 90 | 70 | 90 | 50 | 20 | 10 | 100 | 100 | 100 | 90 | 90 | 90 | 100 | 90 | 100 | 80 | 80 | 30 | Plant response rating, Sedge, Umbrella (0 to 100 scale, 0 is no effect, 100 is complete control) [10]: 65; Plant response rating, Ducksalad (0 to 100 scale, 0 is no effect, 100 is complete control) [11]: 75; Plant response rating, Rice (0 to 100 scale, 0 is no effect, 100 is complete control) (rice (Oryza sativa)): 15; Plant response rating, Barnyardgrass (0 to 100 scale, 0 is no effect, 100 is complete control) [12]: 15; Kochia plant response rating (kochia (Kochia scoparia) [13]): 10; Kochia plant response rating (0 to 100 scale) (kochia (Kochia scoparia) [13]): 80; Foxtail, Giant plant response rating [14]: 70; Foxtail, Giant plant response rating (0 to 100 scale) [14]: 100; Pigweed plant response rating [15]: 90; Pigweed plant response rating (0 to 100 scale) [15]: 90; Ryegrass, Italian plant response rating [16]: 70; Ryegrass, Italian plant response rating (0 to 100 scale) [16]: 100; Ragweed plant response rating [17]: 90; Ragweed plant response rating (0 to 100 scale) [17]: 100; Barnyardgrass plant response rating [18]: 60; Barnyardgrass plant response rating (0 to 100 scale) [18]: 80
3 | CON=C(c1sccc1C)c1c(O)c(C)nn(C)c1=O [Compound 134] | 70 | 20 | 0 | 0 | 20 | 10 | 0 | 0 | 60 | 60 | 10 | 0 | 80 | 40 | 80 | 20 | 70 | 60 | 20 | 10 | Plant response rating, Sedge, Umbrella (0 to 100 scale, 0 is no effect, 100 is complete control) [10]: 0; Plant response rating, Ducksalad (0 to 100 scale, 0 is no effect, 100 is complete control) [11]: 0; Plant response rating, Rice (0 to 100 scale, 0 is no effect, 100 is complete control) (rice (Oryza sativa)): 0; Plant response rating, Barnyardgrass (0 to 100 scale, 0 is no effect, 100 is complete control) [12]: 0; Kochia plant response rating (kochia (Kochia scoparia) [13]): 10; Kochia plant response rating (0 to 100 scale) (kochia (Kochia scoparia) [13]): 50; Foxtail, Giant plant response rating [14]: 0; Foxtail, Giant plant response rating (0 to 100 scale) [14]: 10; Pigweed plant response rating [15]: 20; Pigweed plant response rating (0 to 100 scale) [15]: 60; Ryegrass, Italian plant response rating [16]: 10; Ryegrass, Italian plant response rating (0 to 100 scale) [16]: 30; Ragweed plant response rating (0 to 100 scale) [17]: 70; Barnyardgrass plant response rating [18]: 0; Barnyardgrass plant response rating (0 to 100 scale) [18]: 10
